Source: the NIST ThermoML archive (doi:10.1021/je500239t)

Details: Liquid, isochoric method

CCCCCCn1cc[n+](C)c1.F[P-](F)(F)(F)(F)F [1-hexyl-3-methylimidazolium hexafluorophosphate]
Details	mass density [kg/m3]
220.78 K, 20693 kPa	1364.2
221.31 K, 2190 kPa	1355.99
226.3 K, 10334 kPa	1355.5
226.34 K, 30167 kPa	1363.64
232.2 K, 39852 kPa	1363.05
232.44 K, 20355 kPa	1354.89
232.75 K, 1468.4 kPa	1346.06
238.32 K, 29843 kPa	1354.3
238.38 K, 10065 kPa	1345.53
239.11 K, 50924 kPa	1362.36
244.53 K, 39522 kPa	1353.69
244.58 K, 20078 kPa	1345.49
244.91 K, 1121.9 kPa	1336.19
250.82 K, 49360 kPa	1353.07
251.03 K, 10204 kPa	1335.6
251.05 K, 29930 kPa	1344.61
257.33 K, 19488 kPa	1335.01
257.74 K, 40140 kPa	1344.21
258.25 K, 1630.4 kPa	1325.22
264.3 K, 29775 kPa	1334.34
264.31 K, 10326 kPa	1324.65
264.31 K, 29966 kPa	1334.29
264.82 K, 50312 kPa	1343.28
271.12 K, 19945 kPa	1324.01
271.72 K, 40378 kPa	1333.63
272.25 K, 1996.3 kPa	1314.31
277.88 K, 100 kPa	1308.85
278.37 K, 29980 kPa	1323.33
278.39 K, 10230 kPa	1313.74
278.81 K, 49975 kPa	1332.93
283.3 K, 100 kPa	1304.78
285.6 K, 39832 kPa	1322.66
285.88 K, 20217 kPa	1313.06
285.98 K, 1730.8 kPa	1302.58
288.37 K, 100 kPa	1300.82
293.01 K, 100 kPa	1296.84
293.33 K, 11116 kPa	1301.92
293.38 K, 30030 kPa	1312.37
294.3 K, 49916 kPa	1321.89
298.16 K, 127.6 kPa	1293.38
298.21 K, 100 kPa	1293.14
300.72 K, 20089 kPa	1301.27
301.06 K, 39951 kPa	1311.66
301.51 K, 940.4 kPa	1290.78
303 K, 100 kPa	1289.6
308.05 K, 100 kPa	1285.34
308.93 K, 10526 kPa	1290.11
308.93 K, 30141 kPa	1300.53
309.51 K, 50444 kPa	1310.89
313.17 K, 100 kPa	1280.96
316.34 K, 18783 kPa	1289.47
317.93 K, 100 kPa	1277.34
318.19 K, 41900 kPa	1299.68
318.48 K, 1643.7 kPa	1277.43
323.16 K, 100 kPa	1273.19
325.52 K, 47639 kPa	1299.1
325.7 K, 29844 kPa	1288.64
325.86 K, 10002 kPa	1276.79
328.09 K, 100 kPa	1269.64
333.28 K, 100 kPa	1265.48
334.93 K, 20139 kPa	1276.01
336.11 K, 41946 kPa	1287.71
336.59 K, 1430 kPa	1262.76
338.63 K, 100 kPa	1261.76
343.3 K, 100 kPa	1257.98
344.61 K, 1230.6 kPa	1256.88
345.06 K, 10024 kPa	1262.06
345.06 K, 30866 kPa	1275.14
347.93 K, 50753 kPa	1286.78
348.55 K, 100 kPa	1254.47
353.15 K, 18882 kPa	1261.36
353.15 K, 40148 kPa	1274.42
353.16 K, 10034 kPa	1256.16
353.61 K, 100 kPa	1250.75
358.19 K, 100 kPa	1247.22
364.46 K, 100 kPa	1242.36
